From patent US12522602B2, “Derivatives having 2,3-dihydro-1H-indene or 2,3-dihydrobenzofuran moiety or pharmaceutically acceptable salt thereof and pharmaceutical compositions comprising the same” (YUHAN CORPORATION, priority 2019, dated 2026)

Each compound was assayed against glucosylceramide synthase (GCS) (Homo sapiens (Human), UniProt Q16739) (assay: Inhibitory activity against GCS (A549 cell lysate enzyme reaction, HPLC fluorescence)). Details: NBD C6-ceramide and UDP-glucose, 37° C. for 90 minutes.
Assay type: biochemical
Experimental: Ibiglustat, known as a GCS inhibitor, was used as a control.
After the cells attached to the culture dish were washed with phosphate buffered saline (PBS), the cells were scraped off with a cell scraper and then centrifuged (4000 rpm, 3 min, 4° C.) to collect the cells in a 50 ml tube. The cell pellets were suspended in a lysis buffer (50 mM HEPES, pH 7.3, containing 1× the protease/phosphatase inhibitor cocktail), lysed by sonication, and then the lysate was centrifuged (13000 rpm, 10 min, 4° C.). The obtained supernatant was used for the quantitative analysis of proteins. The amount of proteins was measured using the BCA protein assay kit, using bovine serum albumin as a standard.
Enzymatic reactions were initiated by sequentially adding the following reaction materials to a 96 deep-well plate. Thereafter, the enzymatic reactions were performed at 37° C. for 90 minutes.
The enzymatic reactions were stopped by adding 100 μl of chloroform/methanol (2:1, v/v). […] The lower layer (50 μl) was transferred to a new 96 deep-well plate and dried with a reduced concentrator.

Row | Compound | IC50
1 | (S)-quinuclidin-3-yl (2,2-dimethyl-(2,4,5-trifluorophenyl)-2,3-dihydro-1H-inden-1-yl)carbamate [Example 68] | 15.2 nM

What follows are compounds tested on GM1 production in Jurkat cells (assay: cells). Details: Homo sapiens, Jurkat, 72 h.
Assay type: cell-based

Row | Compound | IC50
2 | CCCCc1ccc(-c2cc3c(cc2OC)C(NC(=O)O[C@@H]2CN4CCC2CC4)C(C)(C)C3)cc1 (stereo partly drawn) [Example 328, (S)-quinuclidin-3-yl (5-(4-butylphenyl)-6-methoxy-2,2-dimethyl-2,3-dihydro-1H-inden-1-yl)carbamate] | 11.4 nM
3 | CCCc1ccc(-c2ccc3c(c2)CC(C)(C)C3NC(=O)O[C@@H]2CN3CCC2CC3)cc1 (stereo partly drawn) [Example 163, (S)-quinuclidin-3-yl (2,2-dimethyl-5-(4-propylphenyl)-2,3-dihydro-1H-inden-1-yl)carbamate] | 12.2 nM
4 | CC1(C)Cc2cc(-c3ccc(C4CC4)cc3)c(F)cc2C1NC(=O)O[C@@H]1CN2CCC1CC2 (stereo partly drawn) [Example 354, (S)-quinuclidin-3-yl (5-(4-cyclopropylphenyl)-6-fluoro-2,2-dimethyl-2,3-dihydro-1H-inden-1-yl)carbamate] | 5.9 nM
5 | CCC1(CC)Cc2cc(-c3ccc4c(c3)OC(F)(F)O4)ccc2C1NC(=O)O[C@@H]1CN2CCC1CC2 (stereo partly drawn) [Example 309, (S)-quinuclidin-3-yl (5-(2,2-difluorobenzo[d][1,3]dioxol-5-yl)-2,2-diethyl-2,3-dihydro-1H-inden-1-yl)carbamate] | 11.2 nM
6 | COc1cc2c(cc1-c1cccc(F)c1)CC(C)(C)C2NC(=O)O[C@@H]1CN2CCC1CC2 (stereo partly drawn) [Example 333, (S)-quinuclidin-3-yl (5-(3-fluorophenyl)-6-methoxy-2,2-dimethyl-2,3-dihydro-1H-inden-1-yl)carbamate] | 45 nM
7 | CC(C)COc1ccc(-c2ccc3c(c2)CC(C)(C)C3NC(=O)O[C@@H]2CN3CCC2CC3)cc1 (stereo partly drawn) [Example 136, (S)-quinuclidin-3-yl (5-(4-isobutoxyphenyl)-2,2-dimethyl-2,3-dihydro-1H-inden-1-yl)carbamate] | 1.7 nM
8 | CC1(C)Cc2cc(-c3ccccc3C(F)(F)F)ccc2C1NC(=O)O[C@@H]1CN2CCC1CC2 (stereo partly drawn) [Example 83, (S)-quinuclidin-3-yl (2,2-dimethyl-5-(2-(trifluoromethyl)phenyl)-2,3-dihydro-1H-inden-1-yl)carbamate] | 3.7 nM
9 | CCC1(CC)Cc2cc(-c3cc(OC)cc(OC)c3)ccc2C1NC(=O)O[C@@H]1CN2CCC1CC2 (stereo partly drawn) [Example 299, (S)-quinuclidin-3-yl (5-(3,5-dimethoxyphenyl)-2,2-diethyl-2,3-dihydro-1H-inden-1-yl)carbamate] | 25.3 nM
10 | CC(C)c1cccc(-c2cc3c(cc2F)C(NC(=O)O[C@@H]2CN4CCC2CC4)C(C)(C)C3)c1 (stereo partly drawn) [Example 373, (S)-quinuclidin-3-yl (6-fluoro-5-(3-isopropylphenyl)-2,2-dimethyl-2,3-dihydro-1H-inden-1-yl)carbamate] | 31.2 nM
11 | CCC1(CC)Cc2cc(-c3ccc(OC)c(OC)c3)ccc2C1NC(=O)O[C@@H]1CN2CCC1CC2 (stereo partly drawn) [Example 298, (S)-quinuclidin-3-yl (5-(3,4-dimethoxyphenyl)-2,2-diethyl-2,3-dihydro-1H-inden-1-yl)carbamate] | 63.2 nM
12 | O=C(NC1CCc2ccc(-c3cccc(C(F)(F)F)c3)cc21)O[C@@H]1CN2CCC1CC2 (stereo partly drawn) [Example 31, (S)-quinuclidin-3-yl (6-(3-(trifluoromethyl)phenyl)-2,3-dihydro-1H-inden-1-yl)carbamate] | 65.5 nM
13 | CC1(C)Cc2cc(-c3cc(F)cc(C(F)(F)F)c3)ccc2C1NC(=O)O[C@@H]1CN2CCC1CC2 (stereo partly drawn) [Example 246, (S)-quinuclidin-3-yl (5-(3-fluoro-5-(trifluoromethyl)phenyl)-2,2-dimethyl-2,3-dihydro-1H-inden-1-yl)carbamate] | 14.7 nM
14 | CC(C)Oc1ccc(-c2ccc3c(c2)CC(C)(C)C3NC(=O)O[C@@H]2CN3CCC2CC3)cc1F (stereo partly drawn) [Example 209, (S)-quinuclidin-3-yl (5-(3-fluoro-4-isopropoxyphenyl)-2,2-dimethyl-2,3-dihydro-1H-inden-1-yl)carbamate] | 32.1 nM
15 | CC1(C)Cc2cc(-c3ccc(C(F)(F)F)cc3C(F)(F)F)ccc2C1NC(=O)O[C@@H]1CN2CCC1CC2 (stereo partly drawn) [Example 252, (S)-quinuclidin-3-yl (5-(2,4-bis(trifluoromethyl)phenyl)-2,2-dimethyl-2,3-dihydro-1H-inden-1-yl)carbamate] | 43.9 nM
16 | O=C(NC1CCc2ccc(-c3cc(Cl)cc(Cl)c3)cc21)O[C@@H]1CN2CCC1CC2 (stereo partly drawn) [Example 48, (S)-quinuclidin-3-yl (6-(3,5-dichlorophenyl)-2,3-dihydro-1H-inden-1-yl)carbamate] | 65.7 nM

Same assay, conditions: read-out: IC50

Row | Compound | IC50
17 | (S)-quinuclidin-3-yl (2,2-dimethyl-(2,4,5-trifluorophenyl)-2,3-dihydro-1H-inden-1-yl)carbamate [Example 68] | 91.8 nM
